This is an account of results in patent US10233182B2, “Substituted spirocyclic inhibitors of autotaxin” (X-Rx, Inc., priority 2014, dated 2019).

Structures can show the parent of a compound that is named as a salt. Where only a bound is given, the exact number is not on record here.

For the assay, the target named is Autotaxin (Homo sapiens (Human), UniProt Q13822). As to the kind of experiment: Autotaxin LPC Cascade Assay. The conditions noted are these: Autotaxin 5 nM, LPC 100 μM, choline oxidase/HRP/Ampliflu Red fluorescence read-out, 2% DMSO, RT; read-out: IC50 ATX Activity. The format is biochemical. The procedure: Autotaxin LPC Cascade Assay:
HA130 and Test Compounds:
Prepare a 1 mM stock of HA130 and a 3 mM stock of each compound in 100% DMSO. Perform a 1:3 serial dilution in DMSO (transfer 5 l of compound to 10 l of DMSO). Add 240 l of buffer to generate a top working concentration of 40 µM (HA130) and 120 µM (test compound) in 4% DMSO.
Ampliflu Red—Prepare a stock of 5 mM from 100 mM in 100% DMSO. Further dilute to a working concentration of 400 μM in buffer (8% DMSO).
Together with compound this yields a 2% DMSO final concentration.
Choline Oxidase/HRP—0.8 U/mL CO and 8 U/mL HRP.
Incubate for 10 mins at RT. Add 5 µl of LPC and incubate for 1 hr on the plate shaker. Prepare the CO/HRP and AR immediately prior to use. Add 2.5 l of CO/HRP and follow with 2.5 l AR. Note order of addition, CO/HRP mix before AR. Read fluorescence intensity (ex/em: 530/590 nm) kinetically for 30 min at RT on the Tecan M1000.
As usually defined, the IC50 is the concentration needed to halve the response being measured. `Cc1cccc(C(=O)N[C@@H](C(=O)N2CCC3(CC2)C(=O)N(C)CN3c2ccccc2)C2CCOCC2)c1` (single isomer, unassigned) [Example 129]: the half-inhibitory concentration (IC50) is 500 to 1000 nM.
The result for `CCc1ccc(F)c(C(=O)N[C@@H](C(=O)N2CCC3(CC2)C(=O)N(C)[C@H](C)N3c2ccc(C(=O)O)cc2)C(C)C)c1` (single isomer, unassigned) [Example 210] reads below 500 nM.
Under `CCc1ccc(F)c(C(=O)N[C@@H](C(=O)N2CCC3(CC2)C(=O)N(C)[C@@H](C)N3c2ccc(C(=O)O)cc2)C(C)C)c1` (single isomer, unassigned) [Example 211] stands below 500 nM; under `Cc1cccc(C(=O)N[C@@H](C(=O)N2CCC3(CC2)C(=O)N(C)C(=O)N3c2ccccc2)C2CCCCC2)c1` [Example 1, (R)—N-(1-Cyclohexyl-2-(3-methyl-2,4-dioxo-1-phenyl-1,3,8-triazaspiro[4.5]decan-8-yl)-2-oxoethyl)-3-methylbenzamide], below 500 nM.
Under `CC(C)[C@@H](NC(=O)c1cccc(F)c1)C(=O)N1CCC2(CC1)C(=O)N(C)C(=O)N2c1ccccc1` [Example 2, (R)-3-Fluoro-N-(3-methyl-1-(3-methyl-2,4-dioxo-1-phenyl-1,3,8-triazaspiro[4.5]decan-8-yl)-1-oxobutan-2-yl)benzamide] stands at least 1000 nM.
As for `Cc1cccc(C(=O)N[C@@H](C(=O)N2CCC3(CC2)C(=O)N(C)C(=O)N3c2ccccc2)C(C)C)c1F` [Example 3, (R)-2-Fluoro-3-methyl-N-(3-methyl-1-(3-methyl-2,4-dioxo-1-phenyl-1,3,8-triazaspiro[4.5]decan-8-yl)-1-oxobutan-2-yl)benzamide], the IC50 lay within 500 to 1000 nM.
Under `CC[C@@H](C)[C@@H](NC(=O)c1cccc(C)c1F)C(=O)N1CCC2(CC1)C(=O)N(C)C(=O)N2c1ccccc1` [Example 4, 2-Fluoro-3-methyl-N-((2R,3R)-3-methyl-1-(3-methyl-2,4-dioxo-1-phenyl-1,3,8-triazaspiro[4.5]decan-8-yl)-1-oxopentan-2-yl)benzamide] stands below 500 nM; under `CCc1ccc(F)c(C(=O)N[C@@H](C(=O)N2CCC3(CC2)C(=O)N(CC#N)C(=O)N3c2ccc(OC)cc2)C(C)C)c1` [Example 5, (R)—N-(1-(3-(Cyanomethyl)-1-(4-methoxyphenyl)-2,4-dioxo-1,3,8-triazaspiro[4.5]decan-8-yl)-3-methyl-1-oxobutan-2-yl)-5-ethyl-2-fluorobenzamide], below 500 nM.
As to `COc1ccc(N2C(=O)N(C)C(=O)C23CCN(C(=O)[C@H](NC(=O)c2cc(C(F)(F)F)ccc2F)C(C)C)CC3)cc1F` [Example 6, (R)-2-Fluoro-N-(1-(1-(3-fluoro-4-methoxyphenyl)-3-methyl-2,4-dioxo-1,3,8-triazaspiro[4.5]decan-8-yl)-3-methyl-1-oxobutan-2-yl)-5-(trifluoromethyl)benzamide], the IC50 is below 500 nM.
As to `CC(C)[C@@H](NC(=O)c1cc(C(F)(F)F)ccc1F)C(=O)N1CCC2(CC1)C(=O)N(C)C(=O)N2c1ccc(C#N)cc1` [Example 7, (R)—N-(1-(1-(4-Cyanophenyl)-3-methyl-2,4-dioxo-1,3,8-triazaspiro[4.5]decan-8-yl)-3-methyl-1-oxobutan-2-yl)-2-fluoro-5-(trifluoromethyl)benzamide], the 50% inhibitory concentration (IC50) is below 500 nM.
On to `CC(C)[C@@H](NC(=O)c1cc(C(F)(F)F)ccc1F)C(=O)N1CCC2(CC1)C(=O)N(C)C(=O)N2c1cccc(C#N)c1` [Example 8, (R)—N-(1-(1-(3-Cyanophenyl)-3-methyl-2,4-dioxo-1,3,8-triazaspiro[4.5]decan-8-yl)-3-methyl-1-oxobutan-2-yl)-2-fluoro-5-(trifluoromethyl)benzamide], for which the IC50 was below 500 nM.
Consider `CC(C)[C@@H](NC(=O)c1cc(C(F)(F)F)ccc1F)C(=O)N1CCC2(CC1)C(=O)N(C)C(=O)N2c1ccc(S(C)(=O)=O)cc1` [Example 9, (R)-2-Fluoro-N-(3-methyl-1-(3-methyl-1-(4-(methylsulfonyl)phenyl)-2,4-dioxo-1,3,8-triazaspiro[4.5]decan-8-yl)-1-oxobutan-2-yl)-5-(trifluoromethyl)benzamide], for which the half-inhibitory concentration (IC50) was 500 to 1000 nM.
In the case of `COc1cccc(N2C(=O)N(C)C(=O)C23CCN(C(=O)[C@H](NC(=O)c2cc(C(F)(F)F)ccc2F)C(C)C)CC3)c1` [Example 10, (R)-2-Fluoro-N-(1-(1-(3-methoxyphenyl)-3-methyl-2,4-dioxo-1,3,8-triazaspiro[4.5]decan-8-yl)-3-methyl-1-oxobutan-2-yl)-5-(trifluoromethyl)benzamide], the concentration for half-maximal inhibition (IC50) was below 500 nM.
As for `CC(C)[C@@H](NC(=O)c1cc(C(F)(F)F)ccc1F)C(=O)N1CCC2(CC1)C(=O)N(C)C(=O)N2c1ccc2oc(=O)n(C)c2c1` [Example 11, (R)-2-Fluoro-N-(3-methyl-1-(3-methyl-1-(3-methyl-2-oxo-2,3-dihydrobenzo[d]oxazol-5-yl)-2,4-dioxo-1,3,8-triazaspiro[4.5]decan-8-yl)-1-oxobutan-2-yl)-5-(trifluoromethyl)benzamide], the IC50 is at least 1000 nM.
Turning to `CC(C)[C@@H](NC(=O)c1cc(C(F)(F)F)ccc1F)C(=O)N1CCC2(CC1)C(=O)N(C)C(=O)N2c1ccc2c(cnn2C)c1` [Example 12, (R)-2-Fluoro-N-(3-methyl-1-(3-methyl-1-(1-methyl-1H-indazol-5-yl)-2,4-dioxo-1,3,8-triazaspiro[4.5]decan-8-yl)-1-oxobutan-2-yl)-5-(trifluoromethyl)benzamide], the IC50 is below 500 nM.
Under `CC(C)[C@@H](NC(=O)c1cc(C(F)(F)F)ccc1F)C(=O)N1CCC2(CC1)C(=O)N(C)C(=O)N2c1ccc2nn(C)cc2c1` [Example 13, (R)-2-Fluoro-N-(3-methyl-1-(3-methyl-1-(2-methyl-2H-indazol-5-yl)-2,4-dioxo-1,3,8-triazaspiro[4.5]decan-8-yl)-1-oxobutan-2-yl)-5-(trifluoromethyl)benzamide] stands below 500 nM; under `CC(C)[C@@H](NC(=O)c1cc(C(F)(F)F)ccc1F)C(=O)N1CCC2(CC1)C(=O)N(C)C(=O)N2c1ccc2nccn2c1` [Example 14, (R)-2-Fluoro-N-(1-(1-(imidazo[1,2-a]pyridin-6-yl)-3-methyl-2,4-dioxo-1,3,8-triazaspiro[4.5]decan-8-yl)-3-methyl-1-oxobutan-2-yl)-5-(trifluoromethyl)benzamide trifluoroacetic Acid Salt], below 500 nM.
Under `CC(C)[C@@H](NC(=O)c1cc(C(F)(F)F)ccc1F)C(=O)N1CCC2(CC1)C(=O)N(C)C(=O)N2c1cccc(S(C)(=O)=O)c1` [Example 15, (R)-2-Fluoro-N-(3-methyl-1-(3-methyl-1-(3-(methylsulfonyl)phenyl)-2,4-dioxo-1,3,8-triazaspiro[4.5]decan-8-yl)-1-oxobutan-2-yl)-5-(trifluoromethyl)benzamide] stands at least 1000 nM.
Under `CC(C)[C@@H](NC(=O)c1cc(C(F)(F)F)ccc1F)C(=O)N1CCC2(CC1)C(=O)N(C)C(=O)N2c1ccn(C)n1` [Example 16, (R)-2-Fluoro-N-(3-methyl-1-(3-methyl-1-(1-methyl-1H-pyrazol-3-yl)-2,4-dioxo-1,3,8-triazaspiro[4.5]decan-8-yl)-1-oxobutan-2-yl)-5-(trifluoromethyl)benzamide] stands at least 1000 nM.
On to `CC(C)[C@@H](NC(=O)c1cc(C(F)(F)F)ccc1F)C(=O)N1CCC2(CC1)C(=O)N(C)C(=O)N2c1cnn(C)c1` [Example 17, (R)-2-Fluoro-N-(3-methyl-1-(3-methyl-1-(1-methyl-1H-pyrazol-4-yl)-2,4-dioxo-1,3,8-triazaspiro[4.5]decan-8-yl)-1-oxobutan-2-yl)-5-(trifluoromethyl)benzamide], for which the half-maximal inhibitory concentration (IC50) is at least 1000 nM.
As to `CCc1ccc(F)c(C(=O)N[C@@H](C(=O)N2CCC3(CC2)C(=O)N(C)C(=O)N3c2ccc3cnc(C)n3c2)C(C)C)c1` [Example 18, (R)-5-Ethyl-2-fluoro-N-(3-methyl-1-(3-methyl-1-(3-methylimidazo[1,5-a]pyridin-6-yl)-2,4-dioxo-1,3,8-triazaspiro[4.5]decan-8-yl)-1-oxobutan-2-yl)benzamide], the IC50 was below 500 nM.
The result for `Cc1nc2ccc(N3C(=O)N(C)C(=O)C34CCN(C(=O)[C@H](NC(=O)c3cc(C(F)(F)F)ccc3F)C(C)C)CC4)cc2[nH]1` [Example 19, (R)-2-Fluoro-N-(3-methyl-1-(3-methyl-1-(2-methyl-1H-benzo[d]imidazol-6-yl)-2,4-dioxo-1,3,8-triazaspiro[4.5]decan-8-yl)-1-oxobutan-2-yl)-5-(trifluoromethyl)benzamide trifluoroacetic Acid Salt] reads at least 1000 nM.
In the case of `CC(C)[C@@H](NC(=O)c1cc(C(F)(F)F)ccc1F)C(=O)N1CCC2(CC1)C(=O)N(C)C(=O)N2c1cnc2[nH]ccc2c1` [Example 20, (R)-2-Fluoro-N-(3-methyl-1-(3-methyl-2,4-dioxo-1-(1H-pyrrolo[2,3-b]pyridin-5-yl)-1,3,8-triazaspiro[4.5]decan-8-yl)-1-oxobutan-2-yl)-5-(trifluoromethyl)benzamide], the IC50 was below 500 nM.
Under `CC(C)[C@@H](NC(=O)c1cc(C(F)(F)F)ccc1F)C(=O)N1CCC2(CC1)C(=O)N(C)C(=O)N2c1ccc2c(c1)OCCN2` [Example 21, (R)—N-(1-(1-(3,4-Dihydro-2H-benzo[b][1,4]oxazin-7-yl)-3-methyl-2,4-dioxo-1,3,8-triazaspiro[4.5]decan-8-yl)-3-methyl-1-oxobutan-2-yl)-2-fluoro-5-(trifluoromethyl)benzamide] stands below 500 nM.
